This note sets out measurements from patent publication US10323060B2, “Benzoic acid derivatives of bile acid as FXR/TGR5 agonists and methods of use thereof” (ENANTA PHARMACEUTICALS, INC., priority 2016, dated 2019).

The target of this assay is human FXR (NR1H4) (Homo sapiens (Human), UniProt Q96RI1). Kind of assay: Human FXR (NR1H4) Assay (luciferase reporter, Indigo Bioscience kit). For Efficacy (%): efficacy normalized to CDCA set as 100%. The note with it: for EC50: FXR agonistic potency range, CHO reporter cells expressing human NR1H4, 22 hours incubation; for Emax: read-out: Efficacy (%). It is filed as cell-based. From the text: Assays Human FXR (NR1H4) Assay
Determination of a ligand mediated Gal4 promoter driven transactivation to quantify ligand binding mediated activation of FXR. FXR Reporter Assay kit purchased from Indigo Bioscience (Catalogue number: IB00601) to determine the potency and efficacy of compound developed by Enanta that can induce FXR activation. The principle application of this reporter assay system is to quantify functional activity of human FXR. The assay utilizes non-human mammalian cells, CHO (Chinese hamster ovary) cells engineered to express human NR1H4 protein (referred to as FXR). Reporter cells also incorporate the cDNA encoding beetle luciferase which catalyzes the substrates and yields photon emission. Luminescence intensity of the reaction is quantified using a plate-reading luminometer, Envision. Reporter Cells include the luciferase reporter gene functionally linked to an FXR responsive promoter. Thus, quantifying changes in luciferase expression in the treated reporter cells provides a sensitive surrogate measure of the changes in FXR activity. […] The assay is according to the manufacturer's instructions. In brief, the assay was performed in white, 96 well plates using final volume of 100 ul containing cells with different doses of compounds. Retrieve Reporter Cells from −80° C. storage. Perform a rapid thaw of the frozen cells by transferring a 10 ml volume of 37° C. cell recovery medium into the tube of frozen cells. Recap the tube of Reporter Cells and immediately place it in a 37° C. water bath for 5-10 minutes. Retrieve the tube of Reporter Cell Suspension from the water bath. Sanitize the outside surface of the tube with a 70% alcohol swab, and then transfer it into the cell culture hood. Dispense 90 μl of cell suspension into each well of the 96-well Assay Plate. Transfer the plate into 37° C. incubator, allowing the cells adherent to the bottom of the well. Dilute compounds in Dilution Plate (DP), and administrate to cells at Assay Plate (AP). DMSO content of the samples was kept at 0.2%. Cells were incubated for additional 22 hours before luciferase activities were measured. Thirty minutes before intending to quantify FXR activity, remove Detection Substrate and Detection Buffer from the refrigerator and place them in a low-light area so that they may equilibrate to room temperature. Remove the plate's lid and discard all media contents by ejecting it into an appropriate waste container. Gently tap the inverted plate onto a clean absorbent paper towel to remove residual droplets. Cells will remain tightly adhered to well bottoms. Add 100 μl of luciferase detection reagent to each well of the assay plate. Allow the assay plate to rest at room temperature for at least 5 minutes following the addition of LDR. Set the instrument (Envision) to perform a single 5 second “plate shake” prior to reading the first assay well. Read time may be 0.5 second (500 mSec) per well.
(In a reporter assay the amount or activity of a reporter protein is the signal.)

human FXR (NR1H4), sequence (Q96RI1 whole entry, the tested form may be a part): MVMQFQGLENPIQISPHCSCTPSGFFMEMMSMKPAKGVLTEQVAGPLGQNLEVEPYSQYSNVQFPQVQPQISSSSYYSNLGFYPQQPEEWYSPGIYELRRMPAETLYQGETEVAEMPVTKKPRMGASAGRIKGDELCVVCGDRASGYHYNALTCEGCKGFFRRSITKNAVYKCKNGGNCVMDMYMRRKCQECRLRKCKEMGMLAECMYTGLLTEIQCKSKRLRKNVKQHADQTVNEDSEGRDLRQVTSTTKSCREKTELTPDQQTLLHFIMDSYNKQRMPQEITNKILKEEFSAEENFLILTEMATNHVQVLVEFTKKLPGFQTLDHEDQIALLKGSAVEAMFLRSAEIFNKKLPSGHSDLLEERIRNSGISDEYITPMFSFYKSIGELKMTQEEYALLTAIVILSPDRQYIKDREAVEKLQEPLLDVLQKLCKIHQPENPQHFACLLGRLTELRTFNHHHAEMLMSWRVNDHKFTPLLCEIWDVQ

In the case of `CC[C@H]1[C@@H](O)[C@@H]2[C@H](CC[C@]3(C)[C@@H]([C@H](C)C/C=C/c4ccc(C(=O)OC)cc4)CC[C@@H]23)[C@@]2(C)CC[C@@H](O)C[C@@H]12` [Example 18], the EC50 lay in the range of 1000 to 10000 nM and the Emax was 113%.
Turning to `CC[C@H]1[C@@H](O)[C@@H]2[C@H](CC[C@]3(C)[C@@H]([C@H](C)C/C=C/c4cnccc4C(=O)OC)CC[C@@H]23)[C@@]2(C)CC[C@@H](O)C[C@@H]12` [Example 27], the EC50 was in the range of 1000 to 10000 nM and the Emax stood at 296%.
For `CC[C@H]1[C@@H](O)[C@@H]2[C@H](CC[C@]3(C)[C@@H]([C@H](C)CC=Cc4cc(F)c(O)c(F)c4)CC[C@@H]23)[C@@]2(C)CC[C@@H](O)C[C@@H]12` [Example 4], in that order: 100 to 1000 nM and 298%.
The matching figures for `CC[C@H]1[C@@H](O)[C@@H]2[C@H](CC[C@]3(C)[C@@H]([C@H](C)C/C=C/c4ccccc4C(=O)OC)CC[C@@H]23)[C@@]2(C)CC[C@@H](O)C[C@@H]12` [Example 1]: 1000 to 10000 nM and 217%.
The matching figures for `CC[C@H]1[C@@H](O)[C@@H]2[C@H](CC[C@]3(C)[C@@H]([C@H](C)C/C=C/c4ccc(C(C)C(=O)OC)cc4)CC[C@@H]23)[C@@]2(C)CC[C@@H](O)C[C@@H]12` (stereo partly shown) [Example 15]: 1000 to 10000 nM and 40%.

The term EC50 denotes the concentration needed to bring the measured effect to its halfway point. Low readings indicate greater potency, high ones weaker potency.
